pIC50: −log10 of the molar value.

The target in experiment [1] is T1, human muscarinic M3 receptors (Homo sapiens, UniProt P20309).
T1 construct: purchased Perkin Elmer; host or cells: CHO-K1 cells
Put plainly: Human muscarinic M3 receptors binding assay ([3H]-NMS, CHO-K1 membranes). As to conditions: membranes from CHO-K1 cells, [3H]-NMS radioligand, two hours incubation. How it is done: Test 2: Human Muscarinic M3 Receptors Binding Assays
The study of binding to human muscarinic M3 receptors was performed using commercial membranes (Perkin Elmer) prepared from CHO-K1 cells.
Radioligand binding experiments were conducted in 96 polypropylene well plates in a total volume of 200 μl. All reagents were dissolved in assay binding buffer (PBS with calcium and magnesium, SIGMA), except compounds that were dissolved in DMSO 100%. Non-specific binding (NSB) was measured in the presence of 1 μM atropine. [3H]-NM, used as the radioligand was incubated with membranes that express human muscarinic M3 at concentration of 4.9 μg/well.
After an incubation period of two hours with gentle shaking, 150 μl of the reaction mix were transferred to 96 GF/C filter plates (Millipore), previously treated with wash buffer (Tris 50 mM; NaCl 100 mM; pH: 7.4), containing 0.05% PEI (Sigma) during one hour. Bound and free [3H]-NMS were separated by rapid vacuum filtration in a manifold from Millipore and washed four times with ice cold wash buffer. After drying 30 min, 30 μl of OPTIPHASE Supermix were added to each well and radioactivity quantified using a Microbeta microplate scintillation counter.
The affinity of each test compound to the receptor was determined by using ten different concentrations ran in duplicate. IC50s were calculated using Activity Base software from IDBS and the four parameters-log equation.

Experiment [2] deals with T2, human adrenergic β2 receptor (Homo sapiens, UniProt P07550).
T2 construct: purchased Perkin Elmer; host or cells: Sf9 cells
The experiment in a line: Human adrenergic β2 receptor binding assay (3H-CGP12177, Sf9 membranes). The settings on record: membranes from Sf9 cells, 0.6 nM 3H-CGP12177, 60 minutes at room temperature. How it is done:
Test 1: Human Adrenergic β1 and β2 Receptor Binding Assays
The study of binding to human adrenergic beta1 and beta2 receptors was performed using commercial membranes prepared from Sf9 cells where they are overexpressed (Perkin Elmer). The membrane suspensions (16 μg/well for beta1 and 5 μg/well for beta2) in assay buffer (75 mM Tris/HCl with 12.5 mM MgCl2 and 2 mM EDTA pH=7.4) were incubated with 0.14 or 0.6 nM of 3H-CGP12177 (Amersham) for beta 1 and beta 2 receptors respectively in a final volume of 250 μl, in GFC Multiscreen 96 well plates (Millipore) previously treated with assay buffer containing 0.3% PEI (Sigma). Non specific binding was measured in the presence of 1 μM propanolol. Incubation was maintained for 60 minutes at room temperature and with gentle shaking. The binding reactions were terminated by filtration and washing with 2.5 volumes of Tris/HCl 50 mM pH=7.4. The affinity of each test compound to the receptor was determined by using ten different concentrations ran in duplicate. IC50s were calculated using Activity Base software from IDBS and the four parameters-log equation.

T1 sequence (P20309 whole entry): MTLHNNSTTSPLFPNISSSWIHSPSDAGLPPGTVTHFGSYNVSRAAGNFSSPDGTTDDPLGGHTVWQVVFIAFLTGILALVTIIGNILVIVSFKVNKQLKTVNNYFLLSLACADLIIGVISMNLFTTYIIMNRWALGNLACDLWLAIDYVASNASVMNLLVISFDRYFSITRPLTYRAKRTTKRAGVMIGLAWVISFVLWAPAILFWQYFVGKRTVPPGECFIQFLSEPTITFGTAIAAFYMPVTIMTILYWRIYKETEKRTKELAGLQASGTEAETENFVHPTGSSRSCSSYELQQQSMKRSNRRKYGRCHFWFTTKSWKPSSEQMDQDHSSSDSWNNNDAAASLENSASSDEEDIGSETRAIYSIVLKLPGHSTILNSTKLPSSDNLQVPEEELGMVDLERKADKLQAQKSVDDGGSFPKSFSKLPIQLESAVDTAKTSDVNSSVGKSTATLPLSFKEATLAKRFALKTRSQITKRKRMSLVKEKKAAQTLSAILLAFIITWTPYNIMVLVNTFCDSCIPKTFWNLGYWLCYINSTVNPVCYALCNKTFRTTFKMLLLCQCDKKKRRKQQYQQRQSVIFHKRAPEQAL

The term pIC50 denotes −log10 of the IC50, conventionally taken in molar units. Take `COc1cc(C(=O)NCCCc2cccc(C3(C(=O)O[C@H]4CN5CCC4CC5)CCCCC3)c2)c(Cl)cc1CNC[C@H](O)c1ccc(O)c2[nH]c(=O)ccc12` [Example 20, (3R)-1-azabicyclo[2.2.2]oct-3-yl 1-[3-(3-{[2-chloro-4-({[(2R)-2-hydroxy-2-(8-hydroxy-2-oxo-1,2-dihydroquinolin-5-yl)ethyl]amino}methyl)-5-methoxybenzoyl]amino}propyl)phenyl]cyclohexanecarboxylate]: the pIC50 was 9.85 in experiment [1] and 8.42 in experiment [2].
On the same counts, the results for `O=C(NCCCCc1cccc(C2(C(=O)O[C@H]3CN4CCC3CC4)CCCCC2)c1)c1ccc(CNC[C@H](O)c2ccc(O)c3[nH]c(=O)ccc23)nc1` [Example 21, (3R)-1-azabicyclo[2.2.2]oct-3-yl 1-{3-[4-({[6-({[(2R)-2-hydroxy-2-(8-hydroxy-2-oxo-1,2-dihydroquinolin-5-yl)ethyl]amino}methyl)pyridin-3-yl]carbonyl}amino)butyl]phenyl}cyclohexanecarboxylate] are 9.22 and 7.47.
On the same counts, the results for `COc1cc(C(=O)OCCCCc2cccc(C3(C(=O)O[C@H]4CN5CCC4CC5)CCCCC3)c2)c(Cl)cc1CNC[C@H](O)c1ccc(O)c2[nH]c(=O)ccc12` [Example 22, 4-[3-(1-{[(3R)-1-azabicyclo[2.2.2]oct-3-yloxy]carbonyl}cyclohexyl)phenyl]butyl 2-chloro-4-({[(2R)-2-hydroxy-2-(8-hydroxy-2-oxo-1,2-dihydroquinolin-5-yl)ethyl]amino}methyl)-5-methoxybenzoate] are 9.54 and 8.11.
For `O=C1c2ccc(CNC[C@H](O)c3ccc(O)c4[nH]c(=O)ccc34)cc2CN1CCCCc1cccc(C2(C(=O)O[C@H]3CN4CCC3CC4)CCCCC2)c1` [Example 23, (3R)-1-azabicyclo[2.2.2]oct-3-yl 1-(3-{4-[5-({[(2R)-2-hydroxy-2-(8-hydroxy-2-oxo-1,2-dihydroquinolin-5-yl)ethyl]amino}methyl)-1-oxo-1,3-dihydro-2H-isoindol-2-yl]butyl}phenyl)cyclohexanecarboxylate], in that order: 9.21 and 7.59.
With `COc1cc(OCC(=O)NCCCCc2cccc(C3(C(=O)O[C@H]4CN5CCC4CC5)CCCCC3)c2)c(Cl)cc1CNCC(O)c1ccc(O)c2[nH]c(=O)ccc12` (stereo partly drawn) [Example 24, (3R)-1-azabicyclo[2.2.2]oct-3-yl 1-{3-[4-({[2-chloro-4-({[2-hydroxy-2-(8-hydroxy-2-oxo-1,2-dihydroquinolin-5-yl)ethyl]amino}methyl)-5-methoxyphenoxy]acetyl}amino)butyl]phenyl}cyclohexanecarboxylate], the negative-log IC50 (pIC50) in experiment [1] is 9.48; in experiment [2], 8.72.
For `COc1cc(NC(=O)CCCc2cccc(C3(C(=O)OCC4CCNCC4)CCCCC3)c2)c(Cl)cc1CNC[C@H](O)c1ccc(O)c2[nH]c(=O)ccc12` [Example 28, piperidin-4-ylmethyl 1-[3-(4-{[2-chloro-4-({[(2R)-2-hydroxy-2-(8-hydroxy-2-oxo-1,2-dihydroquinolin-5-yl)ethyl]amino}methyl)-5-methoxyphenyl]amino}-4-oxobutyl)phenyl]cyclohexanecarboxylate], in that order: 9.44 and 8.66.
For `COc1cc(NC(=O)CCCc2cccc(C3(C(=O)OCC4CCN(C)CC4)CCCCC3)c2)c(Cl)cc1CNC[C@H](O)c1ccc(O)c2[nH]c(=O)ccc12` [Example 29, (1-methylpiperidin-4-yl)methyl 1-[3-(4-{[2-chloro-4-({[(2R)-2-hydroxy-2-(8-hydroxy-2-oxo-1,2-dihydroquinolin-5-yl)ethyl]amino}methyl)-5-methoxyphenyl]amino}-4-oxobutyl)phenyl]cyclohexanecarboxylate], in that order: 9.24 and 8.66.
For `COc1cc(NCC(=O)NCCCc2cccc(C3(C(=O)O[C@H]4CN5CCC4CC5)CCCCC3)c2)c(Cl)cc1CNC[C@H](O)c1ccc(O)c2[nH]c(=O)ccc12` [Example 30, (3R)-1-azabicyclo[2.2.2]oct-3-yl 1-{3-[3-({N-[2-chloro-4-({[(2R)-2-hydroxy-2-(8-hydroxy-2-oxo-1,2-dihydroquinolin-5-yl)ethyl]amino}methyl)-5-methoxyphenyl]glycyl}amino)propyl]phenyl}cyclohexanecarboxylate], in that order: 8.82 and 7.89.
`COc1cc(NC(=O)CCCc2ccc(C3(C(=O)O[C@H]4CN5CCC4CC5)CCCCC3)cc2)c(Cl)cc1CNC[C@H](O)c1ccc(O)c2[nH]c(=O)ccc12` [Example 31, (3R)-1-azabicyclo[2.2.2]oct-3-yl 1-[4-(4-{[2-chloro-4-({[(2R)-2-hydroxy-2-(8-hydroxy-2-oxo-1,2-dihydroquinolin-5-yl)ethyl]amino}methyl)-5-methoxyphenyl]amino}-4-oxobutyl)phenyl]cyclohexanecarboxylate]: the negative logarithm of the IC50 (pIC50) in experiment [1] was 9.39; in experiment [2], 8.40.
On the same counts, the results for “(3R)-1-azabicyclo[2.2.2]oct-3-yl 1-(3-{4-[{[2-chloro-4-({[2-hydroxy-2-(8-hydroxy-2-oxo-1,2-dihydroquinolin-5-yl)ethyl]amino}methyl)-5-methoxyphenoxy]acetyl}(methyl)amino]butyl}phenyl)cyclohexanecarboxylate [Example 26]” are 9.28 and 8.52.

(Values after patent US10005771B2, “Bicyclic derivatives having β2 adrenergic agonist and M3 muscarinic antagonist activities” (Almirall, S.A., priority 2014, dated 2018).)
